pIC50: −log10 of the molar value.

Drawing on patent US8895547B2, “Substituted phenyl-oxathiazine derivatives, method for producing them, drugs containing said compounds and the use thereof” (Sanofi, priority 2011, dated 2014), this text covers IC50 for 13 compounds.

The experiment concerns the target T1, human 11β-HSD1 (Homo sapiens, UniProt P28845).
T1 construct: host or cells: microsome fraction
The experiment is described as follows: Enzymatic 11beta-HSD1 test (SPA-based detection). It counts as biochemical. The conditions noted are these: human 11β-HSD1 microsome fraction, [1,2-3H]-cortisone, NADPH, 37° C. 1 hour. Summed up: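 Human 11β-HSD1 microsomes (0.2 µg protein) converted [1,2-3H]-cortisone ([…]) for 1 h at 37 °C. The reaction buffer was HEPES/KCl/NaCl/MgCl2 with 0.25 mM NADPH, with compounds added in DMSO. The reaction was stopped with SPA beads, anti-cortisol monoclonal antibody and 0.01 mM SSR110887; after 1 h at room temperature, [3H]-cortisol was scintillation-counted.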

T1 sequence (P28845 whole entry): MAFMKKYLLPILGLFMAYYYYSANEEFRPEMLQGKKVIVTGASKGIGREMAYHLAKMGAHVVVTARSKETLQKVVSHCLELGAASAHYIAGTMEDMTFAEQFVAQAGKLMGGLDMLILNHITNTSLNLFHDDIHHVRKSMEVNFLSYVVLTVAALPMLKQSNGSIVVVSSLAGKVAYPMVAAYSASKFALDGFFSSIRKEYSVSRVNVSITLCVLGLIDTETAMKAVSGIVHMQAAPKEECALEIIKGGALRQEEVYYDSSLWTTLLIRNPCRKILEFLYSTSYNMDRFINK

For the compound `COc1ccc(-c2ccc(C3(C)C(C)(C)OC(N[C@@H](CCO)c4ccccc4F)=NS3(=O)=O)cc2)cc1` (stereo partly drawn) [Example 81, (S)-3-(2-Fluorophenyl)-3-[5-(4′-methoxy-biphenyl-4-yl)-5,6,6-trimethyl-4,4-dioxo-5,6-dihydro-4H-4lambda6-[1,4,3]oxathiazin-2-ylamino]-propan-1-ol], the pIC50 was 8.00.

With `CC1(C)OC(N[C@@H](CCO)c2ccccc2F)=NS(=O)(=O)C1(C)c1ccc(-c2ccc(F)cc2)cc1` (stereo partly drawn) [Example 80, (S)-3-[5-(4′-Fluorobiphenyl-4-yl)-5,6,6-trimethyl-4,4-dioxo-5,6-dihydro-4H-4lambda6-[1,4,3]oxathiazin-2-ylamino]-3-(2-fluorophenyl)-propan-1-ol], the pIC50 is 8.15. In turn, `CC1(C)OC(N[C@@H](CCO)c2ccccc2)=NS(=O)(=O)C1c1cccc(Cc2ccccc2)c1` (stereo partly drawn) [Example 10, (S)-3-[5-(3-Benzyl-phenyl)-6,6-dimethyl-4,4-dioxo-5,6-dihydro-4H-4lambda6-[1,4,3]oxathiazin-2-ylamino]-3-phenyl-propan-1-ol] had a pIC50 of 7.82.

In turn, `CC1(C)OC(N[C@@H](CCO)c2ccccc2)=NS(=O)(=O)C1(C)c1ccccc1` (stereo partly drawn) [Example 42, (S)-3-Phenyl-3-(5,6,6-trimethyl-4,4-dioxo-5-phenyl-5,6-dihydro-4H-4lambda6-[1,4,3]oxathiazin-2-ylamino)-propan-1-ol] had a pIC50 of 7.77. The pIC50 values of the last two compounds are within 0.2 log units of each other. The value for `CC1(C)OC(NC2CCCCC2)=NS(=O)(=O)C1c1ccc(-c2ccccc2)cc1` (stereo not shown) [Example 3, (5-Biphenyl-4-yl-6,6-dimethyl-4,4-dioxo-5,6-dihydro-4H-4lambda6-[1,4,3]oxathiazin-2-yl)-cyclohexyl-amine] was 5.90; that for `CC1(C)OC(N[C@@H](CCO)c2ccccc2F)=NS(=O)(=O)C1c1ccc(N2CCN(CCC(F)(F)F)CC2)cc1` (single isomer, unassigned) [Example 182] was 8.22; that for `C[C@H](NC1=NS(=O)(=O)C(c2ccc(-c3cccc(C(N)=O)c3)nc2)C(C)(C)O1)c1ccccc1F` (stereo partly drawn) [Example 181, 3-(5-{2-[(S)-1-(2-fluorophenyl)-ethylamino]-6,6-dimethyl-4,4-dioxo-5,6-dihydro-4H-4lambda6-[1,4,3]oxathiazin-5-yl}-pyridin-2-yl)-benzamide] was 8.15. To `C[C@H](NC1=NS(=O)(=O)C(c2ccc(-c3cccc(C(N)=O)c3)cc2)C(C)(C)O1)c1ccccc1F` (stereo partly drawn) [Example 156, 4′-{2-[(S)-1-(2-fluorophenyl)-ethylamino]-6,6-dimethyl-4,4-dioxo-5,6-dihydro-4H-4lambda6-[1,4,3]oxathiazin-5-yl}-biphenyl-3-carboxamide] belongs 7.92; to `C[C@H](NC1=NS(=O)(=O)C(C)(c2cccc(N3CCN(S(C)(=O)=O)CC3)c2)C(C)(C)O1)c1ccccc1F` (stereo partly drawn) [Compound 35, [(S)-1-(2-Fluorophenyl)ethyl]-{5-[3-(4-methanesulfonylpiperazin-1-yl)-phenyl]-5,6,6-trimethyl-4,4-dioxo-5,6-dihydro-4H-4lambda6-[1,4,3]oxathiazin-2-yl}amine], 7.82; to `CC(C)(C)c1ccc(C2C(C)(C)OC(N[C@@H](CCO)c3ccccc3F)=NS2(=O)=O)cc1` (single isomer, unassigned) [Example 84], 7.82.

In turn, `C[C@H](NC1=NS(=O)(=O)C(C)(c2ccc(C(C)(C)C)cc2)C(C)(C)O1)c1ccccc1F` (stereo partly drawn) [Compound 63, [5-(4-tert-Butylphenyl)-5,6,6-trimethyl-4,4-dioxo-5,6-dihydro-4H-4lambda6-[1,4,3]oxathiazin-2-yl]-[(S)-1-(2-fluorophenyl)ethyl]amine] gave a pIC50 of 7.49. Compared with the last compound, the pIC50 is 0.33 log units lower.

For the compound `CC1(C)OC(N[C@@H](CCO)c2ccccc2)=NS(=O)(=O)C1c1ccc(-c2ccccc2)cc1` (stereo partly drawn) [Example 12, (S)-3-(5-Biphenyl-4-yl-6,6-dimethyl-4,4-dioxo-5,6-dihydro-4H-4lambda6-[1,4,3]oxathiazin-2-ylamino)-3-phenyl-propan-1-ol], the pIC50 is 7.35. With `CN1CCN(c2ccc(C3C(C)(C)OC(N[C@@H](CCO)c4ccccc4F)=NS3(=O)=O)cc2)CC1` (stereo partly shown) [Example 109], the pIC50 was 7.10. This pIC50 is 0.25 log units lower than that of the compound before.
